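Abbreviation: GI50, concentration required for 50% inhibition of growth. Definition used: TGI = concentration required for complete inhibition of growth.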 Where a SMILES comes first, the peptide text is derived from it. [ ]: non-standard residue; d: D form. The star is where a group is joined. Dolaproine = CO[C@@H]([C@@H]1CCCN1)[C@@H](C)C(=O)O; Dil = CC[C@H](C)[C@H](NC)[C@@H](CC(=O)O)OC; X2 = C[C@@H](N*)[C@@H](O)c1ccccc1; NMeV = CN[C@H](C(=O)O)C(C)C
Tests used:
Assay in all cases: DTP human tumour cell line panel, 384-well format
786-0 renal = system: 786-0 renal
A498 renal = system: A498 renal
A549 NSCLC = system: A549 NSCLC
ACHN renal = system: ACHN renal
BT-549 breast = system: BT-549 breast
CAKI-1 renal = system: CAKI-1 renal
CCRF-CEM leukemia = system: CCRF-CEM leukemia
COLO 205 colon = system: COLO 205 colon
DU-145 prostate = system: DU-145 prostate
HCC-2998 colon = system: HCC-2998 colon
HCT-116 colon = system: HCT-116 colon
HCT-15 colon = system: HCT-15 colon
HL-60(TB) leukemia = system: HL-60(TB) leukemia
HOP-62 NSCLC = system: HOP-62 NSCLC
HOP-92 NSCLC = system: HOP-92 NSCLC
HT29 colon = system: HT29 colon
IGROV1 ovarian = system: IGROV1 ovarian
K-562 leukemia = system: K-562 leukemia
KM12 colon = system: KM12 colon
LOX IMVI melanoma = system: LOX IMVI melanoma
M14 melanoma = system: M14 melanoma
MALME-3M melanoma = system: MALME-3M melanoma
MCF7 breast = system: MCF7 breast
MDA-MB-231 breast = system: MDA-MB-231 breast
MDA-MB-435 melanoma = system: MDA-MB-435 melanoma
MDA-MB-468 breast = system: MDA-MB-468 breast
MOLT-4 leukemia = system: MOLT-4 leukemia
NCI-H226 lung = system: NCI-H226 lung
NCI-H23 lung = system: NCI-H23 lung
NCI-H322M lung = system: NCI-H322M lung
NCI-H460 NSCLC = system: NCI-H460 NSCLC
NCI-H522 lung = system: NCI-H522 lung
NCI/ADR-RES ovarian = system: NCI/ADR-RES ovarian
OVCAR-3 ovarian = system: OVCAR-3 ovarian
OVCAR-4 ovarian = system: OVCAR-4 ovarian
OVCAR-5 ovarian = system: OVCAR-5 ovarian
OVCAR-8 ovarian = system: OVCAR-8 ovarian
RPMI-8226 leukemia = system: RPMI-8226 leukemia
RXF 393 renal = system: RXF 393 renal
SF-268 CNS = system: SF-268 CNS
SF-295 CNS = system: SF-295 CNS
SF-539 CNS = system: SF-539 CNS
SK-MEL-2 melanoma = system: SK-MEL-2 melanoma
SK-MEL-5 melanoma = system: SK-MEL-5 melanoma
SK-OV-3 ovarian = system: SK-OV-3 ovarian
SN12C renal = system: SN12C renal
SNB-19 CNS = system: SNB-19 CNS
SR leukemia = system: SR leukemia
SW-620 colon = system: SW-620 colon
T-47D breast = system: T-47D breast
TK-10 renal = system: TK-10 renal
U251 glioblastoma = system: U251 glioblastoma
UACC-257 melanoma = system: UACC-257 melanoma
UACC-62 melanoma = system: UACC-62 melanoma
UO-31 renal = system: UO-31 renal

## CC[C@H](C)[C@@H]([C@@H](CC(=O)N1CCC[C@H]1[C@H](OC)[C@@H](C)C(=O)N[C@H](C)[C@@H](O)c1ccccc1)OC)N(C)C(=O)[C@@H](NC(=O)[C@@H](NC)C(C)C)C(C)C (H-[NMeV]V[Dil][Dolaproine]-X2)
786-0 renal
  GI50: < 0.01 µM
  TGI: < 0.01 µM
A498 renal
  GI50: < 0.01 µM
  TGI: 0.0112 µM
A549 NSCLC
  GI50: < 0.01 µM
  TGI: < 0.01 µM
ACHN renal
  GI50: < 0.01 µM
  TGI: > 100 µM
BT-549 breast
  GI50: < 0.01 µM
  TGI: < 0.01 µM
CAKI-1 renal
  GI50: < 0.01 µM
  TGI: 24.4 µM
CCRF-CEM leukemia
  GI50: < 0.01 µM
  TGI: < 0.01 µM
COLO 205 colon
  GI50: < 0.01 µM
  TGI: < 0.01 µM
DU-145 prostate
  GI50: < 0.01 µM
  TGI: < 0.01 µM
HCC-2998 colon
  GI50: < 0.01 µM
  TGI: < 0.01 µM
HCT-116 colon
  GI50: < 0.01 µM
  TGI: < 0.01 µM
HCT-15 colon
  GI50: < 0.01 µM
  TGI: 0.0632 µM
HL-60(TB) leukemia
  GI50: < 0.01 µM
  TGI: < 0.01 µM
HOP-62 NSCLC
  GI50: < 0.01 µM
  TGI: 0.0304 µM
HOP-92 NSCLC
  GI50: < 0.01 µM
  TGI: < 0.01 µM
HT29 colon
  GI50: < 0.01 µM
  TGI: < 0.01 µM
IGROV1 ovarian
  GI50: < 0.01 µM
  TGI: 0.0916 µM
K-562 leukemia
  GI50: < 0.01 µM
  TGI: < 0.01 µM
KM12 colon
  GI50: < 0.01 µM
  TGI: < 0.01 µM
LOX IMVI melanoma
  GI50: < 0.01 µM
  TGI: < 0.01 µM
M14 melanoma
  GI50: < 0.01 µM
  TGI: < 0.01 µM
MALME-3M melanoma
  GI50: < 0.01 µM
  TGI: < 0.01 µM
MCF7 breast
  GI50: < 0.01 µM
  TGI: 0.121 µM
MDA-MB-231 breast
  GI50: < 0.01 µM
  TGI: < 0.01 µM
MDA-MB-435 melanoma
  GI50: < 0.01 µM
  TGI: < 0.01 µM
MDA-MB-468 breast
  GI50: < 0.01 µM
  TGI: < 0.01 µM
MOLT-4 leukemia
  GI50: < 0.01 µM
  TGI: < 0.01 µM
NCI-H226 lung
  GI50: < 0.01 µM
  TGI: < 0.01 µM
NCI-H23 lung
  GI50: < 0.01 µM
  TGI: < 0.01 µM
NCI-H322M lung
  GI50: < 0.01 µM
  TGI: > 100 µM
NCI-H460 NSCLC
  GI50: < 0.01 µM
  TGI: < 0.01 µM
NCI-H522 lung
  GI50: < 0.01 µM
  TGI: < 0.01 µM
NCI/ADR-RES ovarian
  GI50: 0.105 µM
  TGI: 0.266 µM
OVCAR-3 ovarian
  GI50: < 0.01 µM
  TGI: < 0.01 µM
OVCAR-4 ovarian
  GI50: < 0.01 µM
  TGI: 24.3 µM
OVCAR-5 ovarian
  GI50: < 0.01 µM
  TGI: > 100 µM
OVCAR-8 ovarian
  GI50: < 0.01 µM
  TGI: < 0.01 µM
RPMI-8226 leukemia
  GI50: < 0.01 µM
  TGI: < 0.01 µM
RXF 393 renal
  GI50: < 0.01 µM
  TGI: < 0.01 µM
SF-268 CNS
  GI50: < 0.01 µM
  TGI: < 0.01 µM
SF-295 CNS
  GI50: < 0.01 µM
  TGI: < 0.01 µM
SF-539 CNS
  GI50: < 0.01 µM
  TGI: < 0.01 µM
SK-MEL-2 melanoma
  GI50: < 0.01 µM
  TGI: < 0.01 µM
SK-MEL-5 melanoma
  GI50: < 0.01 µM
  TGI: < 0.01 µM
SK-OV-3 ovarian
  GI50: < 0.01 µM
  TGI: < 0.01 µM
SN12C renal
  GI50: < 0.01 µM
  TGI: > 100 µM
SNB-19 CNS
  GI50: < 0.01 µM
  TGI: < 0.01 µM
SR leukemia
  GI50: < 0.01 µM
  TGI: < 0.01 µM
SW-620 colon
  GI50: < 0.01 µM
  TGI: > 100 µM
T-47D breast
  GI50: < 0.01 µM
  TGI: > 100 µM
TK-10 renal
  GI50: < 0.01 µM
  TGI: > 100 µM
U251 glioblastoma
  GI50: < 0.01 µM
  TGI: < 0.01 µM
UACC-257 melanoma
  GI50: < 0.01 µM
  TGI: 12.7 µM
UACC-62 melanoma
  GI50: < 0.01 µM
  TGI: < 0.01 µM
UO-31 renal
  GI50: < 0.01 µM
  TGI: > 100 µM
